The results in this text go back to article PMC3848040 (Science (New York, N.Y.), 2013).

The target in test [1] is T1, GTDC2dTM (Homo sapiens, UniProt Q8NAT1).
T1 sequence (Q8NAT1 26-580 limits assumed): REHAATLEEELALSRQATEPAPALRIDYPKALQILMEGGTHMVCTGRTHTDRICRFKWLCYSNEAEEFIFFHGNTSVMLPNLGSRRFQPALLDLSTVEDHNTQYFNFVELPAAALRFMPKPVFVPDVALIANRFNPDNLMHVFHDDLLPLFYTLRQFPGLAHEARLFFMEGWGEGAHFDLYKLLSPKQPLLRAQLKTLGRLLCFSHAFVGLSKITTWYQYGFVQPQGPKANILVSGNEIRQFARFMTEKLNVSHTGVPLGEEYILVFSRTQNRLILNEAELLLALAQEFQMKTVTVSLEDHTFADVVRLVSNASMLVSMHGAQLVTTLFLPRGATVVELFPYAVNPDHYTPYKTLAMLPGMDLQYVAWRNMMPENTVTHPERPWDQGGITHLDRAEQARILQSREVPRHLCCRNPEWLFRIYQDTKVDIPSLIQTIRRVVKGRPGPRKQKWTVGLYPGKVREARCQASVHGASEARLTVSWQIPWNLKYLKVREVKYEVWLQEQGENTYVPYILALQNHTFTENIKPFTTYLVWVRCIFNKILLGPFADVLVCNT
Briefly: glycosyl transfer, gel filtration and NMR of product. In kind it is biochemical. On the technique in general: Size exclusion chromatography separates by hydrodynamic size, large species first.

In test [2] the target is T2, B3GALNT2dTM (Homo sapiens, UniProt Q8NCR0).
T2 sequence (Q8NCR0 24-500 limits assumed): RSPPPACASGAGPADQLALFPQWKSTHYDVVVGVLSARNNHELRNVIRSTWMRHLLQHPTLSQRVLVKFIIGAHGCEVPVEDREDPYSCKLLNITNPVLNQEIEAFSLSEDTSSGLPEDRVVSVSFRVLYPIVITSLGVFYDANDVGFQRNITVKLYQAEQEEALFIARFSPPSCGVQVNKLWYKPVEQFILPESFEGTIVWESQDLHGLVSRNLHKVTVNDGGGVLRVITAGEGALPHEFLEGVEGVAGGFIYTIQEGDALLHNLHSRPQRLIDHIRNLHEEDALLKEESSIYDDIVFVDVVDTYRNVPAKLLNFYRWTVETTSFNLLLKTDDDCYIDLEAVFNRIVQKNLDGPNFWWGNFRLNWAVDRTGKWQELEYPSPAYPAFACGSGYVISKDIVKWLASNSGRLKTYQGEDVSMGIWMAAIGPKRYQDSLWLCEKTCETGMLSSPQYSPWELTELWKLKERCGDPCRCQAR
In words: glycosyl transfer, MALDI-TOF/MS. The test is classed as biochemical. The following applies: donor; acceptor GlcNAc-β4-Man-O-peptide.

On to `Cc1cc(=O)oc2cc(O[C@H]3O[C@H](CO)[C@@H](O)[C@H](O)[C@@H]3O)ccc12` [Man-α-MU, 4-methylumbelliferyl-α-D-mannoside], for which the “glycosyl transfer, gel filtration and NMR of product” value in test [1] (acceptor, donor UDP-GlcNAc) was “conducted the transfer assay using fluorescently labeled mannoside (4-methylumbelliferyl-α-D-mannoside; Man-α-MU) as the acceptor”.

Take `CC(=O)N[C@H]1[C@@H](OP(=O)(O)OP(=O)(O)OC[C@H]2O[C@@H](n3ccc(=O)[nH]c3=O)[C@H](O)[C@@H]2O)O[C@H](CO)[C@H](O)[C@@H]1O` [UDP-GalNAc]: the “glycosyl transfer, MALDI-TOF/MS” value in test [2] was “incubated this protein with UDPGalNAc and the GlcNAc-β4-Man-O-peptide produced by the GTDC2dTM reaction”. On to `CC(=O)N[C@H]1[C@@H](OP(=O)(O)OP(=O)(O)OC[C@H]2O[C@@H](n3ccc(=O)[nH]c3=O)[C@H](O)[C@@H]2O)O[C@H](CO)[C@@H](O)[C@@H]1O` [UDP-GlcNAc], for which the “glycosyl transfer, gel filtration and NMR of product” value in test [1] (donor, acceptor Man-α-MU) was “Reactant of the GTDC2dTM assay using Man-α-MU and UDP-GlcNAc was separated”.
